According to patent publication US9187471B2, “Pyrido [4,3-b] indole and pyrido [3,4-b] indole derivatives and methods of use” (Medivation Technologies, Inc., priority 2010, dated 2015):

What was measured:
[1] = molecular target: T1, human recombinant serotonin (5-Hydroxytryptamine) 5-HT2C receptor (Homo sapiens, UniProt P28335); assay: Serotonin 5-HT2C radioligand binding ([3H]Mesulergine); conditions: compound at 0.1 μM; read-out: Inhibition of ligand binding, Serotonin 5-HT2C (percent inhibition of specific binding)
T1 construct: expressed in transfected cells; host or cells: CHO-K1
T1 sequence (P28335 33-458): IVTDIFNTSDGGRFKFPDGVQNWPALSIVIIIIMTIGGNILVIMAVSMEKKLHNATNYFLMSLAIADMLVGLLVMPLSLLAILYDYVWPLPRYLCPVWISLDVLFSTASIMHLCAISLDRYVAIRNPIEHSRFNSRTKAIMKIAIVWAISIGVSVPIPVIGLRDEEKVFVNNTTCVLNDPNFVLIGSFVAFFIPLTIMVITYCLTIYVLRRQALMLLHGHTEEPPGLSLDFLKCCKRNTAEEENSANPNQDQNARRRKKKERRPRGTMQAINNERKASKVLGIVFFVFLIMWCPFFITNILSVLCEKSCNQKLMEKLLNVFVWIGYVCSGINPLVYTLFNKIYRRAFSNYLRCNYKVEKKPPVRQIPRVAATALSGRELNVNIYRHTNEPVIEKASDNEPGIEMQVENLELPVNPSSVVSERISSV
Procedure: Compounds of the invention were incubated with 1 nM [^3H]Mesulergine for 60 min at 25° C. Non-specific binding was estimated in the presence of 1 μM Mianserin. Receptor proteins were filtered and washed, the filters were then counted to determine [^3H]Mesulergine specifically bound.

[2] = molecular target: T2, human recombinant serotonin (5-Hydroxytryptamine) 5-HT7 receptor (Homo sapiens, UniProt P34969); assay: Serotonin 5-HT7 radioligand binding ([3H]LSD); conditions: compound at 0.1 μM; read-out: Inhibition of ligand binding, Serotonin 5-HT7 (percent inhibition of specific binding)
T2 construct: expressed in transfected cells; host or cells: CHO
T2 sequence (P34969 whole entry): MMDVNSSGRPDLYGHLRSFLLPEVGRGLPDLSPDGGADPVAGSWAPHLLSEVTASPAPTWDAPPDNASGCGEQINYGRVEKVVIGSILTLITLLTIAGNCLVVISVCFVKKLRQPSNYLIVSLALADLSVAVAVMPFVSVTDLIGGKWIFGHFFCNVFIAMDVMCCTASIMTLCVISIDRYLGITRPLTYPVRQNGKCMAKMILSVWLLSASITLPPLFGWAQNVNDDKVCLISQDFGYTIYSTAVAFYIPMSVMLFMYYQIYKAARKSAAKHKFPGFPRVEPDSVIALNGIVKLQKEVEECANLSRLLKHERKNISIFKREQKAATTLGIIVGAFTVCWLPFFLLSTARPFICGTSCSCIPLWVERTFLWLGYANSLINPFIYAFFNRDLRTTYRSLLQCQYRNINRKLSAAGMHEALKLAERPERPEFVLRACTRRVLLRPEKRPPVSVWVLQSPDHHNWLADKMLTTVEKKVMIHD
Procedure: Lysergic acid diethylamide (LSD) for 120 min. at 25° C. […] Receptor proteins were filtered and washed, the filters were then counted to determine [^3H]LSD specifically bound.

[3] = molecular target: T3, human recombinant dopamine D2L receptor (Homo sapiens, UniProt P14416); assay: Dopamine D2L radioligand binding ([3H]Spiperone); conditions: read-out: Dopamine D2L (1 μM), percent inhibition of specific binding; compound at 1 μM; 0.16 nM [3H]Spiperone
T3 construct: expressed in transfected cells; host or cells: CHO
T3 sequence (P14416 whole entry): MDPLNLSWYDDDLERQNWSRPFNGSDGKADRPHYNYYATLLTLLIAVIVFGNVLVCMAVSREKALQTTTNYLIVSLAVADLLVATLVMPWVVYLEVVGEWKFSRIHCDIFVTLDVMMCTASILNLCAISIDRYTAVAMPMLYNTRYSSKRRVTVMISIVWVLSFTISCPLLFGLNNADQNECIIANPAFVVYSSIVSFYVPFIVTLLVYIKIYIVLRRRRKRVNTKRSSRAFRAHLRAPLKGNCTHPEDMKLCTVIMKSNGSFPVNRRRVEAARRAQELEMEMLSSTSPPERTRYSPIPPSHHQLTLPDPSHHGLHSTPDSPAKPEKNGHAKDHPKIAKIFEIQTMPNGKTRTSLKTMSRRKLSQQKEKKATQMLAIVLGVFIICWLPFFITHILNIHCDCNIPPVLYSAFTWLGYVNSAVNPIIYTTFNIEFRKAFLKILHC
Procedure: Non-specific binding was estimated in the presence of 10 μM Haloperidol. Receptor proteins were filtered and washed, the filters were then counted to determine [^3H]Spiperone specifically bound.

[4] = molecular target: T4, human recombinant serotonin (5-Hydroxytryptamine) 5-HT2A receptor (Homo sapiens, UniProt P28223); assay: Serotonin 5-HT2A radioligand binding ([3H]Ketanserin); conditions: compound at 0.1 μM; read-out: Inhibition of ligand binding, Serotonin 5-HT2A (percent inhibition of specific binding)
T4 construct: expressed in transfected cells; host or cells: CHO-K1
T4 sequence (P28223 whole entry): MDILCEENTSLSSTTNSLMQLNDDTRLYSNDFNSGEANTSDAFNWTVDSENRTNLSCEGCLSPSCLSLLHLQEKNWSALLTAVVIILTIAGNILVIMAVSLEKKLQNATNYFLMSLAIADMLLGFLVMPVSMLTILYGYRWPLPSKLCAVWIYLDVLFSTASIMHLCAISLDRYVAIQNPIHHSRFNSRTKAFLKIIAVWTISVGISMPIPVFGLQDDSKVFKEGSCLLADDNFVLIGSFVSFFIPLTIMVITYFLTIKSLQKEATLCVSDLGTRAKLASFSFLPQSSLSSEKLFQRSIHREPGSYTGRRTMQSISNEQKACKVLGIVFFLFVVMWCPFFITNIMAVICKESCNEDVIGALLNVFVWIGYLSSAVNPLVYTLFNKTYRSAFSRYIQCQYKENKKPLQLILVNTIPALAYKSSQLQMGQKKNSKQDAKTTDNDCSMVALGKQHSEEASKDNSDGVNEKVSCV
Procedure: Compounds of the invention were incubated with 0.5 nM [^3H]Ketanserin for 60 min at 25° C. Non-specific binding was estimated in the presence of 1 μM Mianserin. Receptor proteins were filtered and washed, the filters were then counted to determine [^3H]Ketanserin specifically bound.

[5] = molecular target: T5, human recombinant histamine H1 receptor (Homo sapiens, UniProt P35367); assay: Histamine H1 radioligand binding ([3H]Pyrilamine); conditions: read-out: Histamine H1 Binding (1 μM), percent inhibition of specific binding; compound at 1 μM; 1.2 nM [3H]Pyrilamine
T5 construct: expressed in transfected cells; host or cells: CHO-K1
T5 sequence (P35367 whole entry): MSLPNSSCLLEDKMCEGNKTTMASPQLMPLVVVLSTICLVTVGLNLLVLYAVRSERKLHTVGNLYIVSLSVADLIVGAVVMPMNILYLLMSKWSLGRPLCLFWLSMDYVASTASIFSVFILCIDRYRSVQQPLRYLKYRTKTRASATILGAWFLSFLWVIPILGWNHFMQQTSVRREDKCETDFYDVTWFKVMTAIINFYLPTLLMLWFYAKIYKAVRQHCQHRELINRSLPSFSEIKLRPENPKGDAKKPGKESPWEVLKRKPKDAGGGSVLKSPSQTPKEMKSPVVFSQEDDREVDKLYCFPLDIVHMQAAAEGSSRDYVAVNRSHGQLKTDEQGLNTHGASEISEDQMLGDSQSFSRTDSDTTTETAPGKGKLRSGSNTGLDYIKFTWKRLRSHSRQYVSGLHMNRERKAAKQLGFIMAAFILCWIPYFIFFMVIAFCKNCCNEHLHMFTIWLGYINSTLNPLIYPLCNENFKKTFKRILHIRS
Procedure: To evaluate in radioligand binding assays the activity of compounds of the invention, human recombinant histamine H1 receptor expressed in Chinese hamster ovary (CHO) K1 cells (De Backer, M. et al, Biochem. Biophys. Res. Comm. 197(3):1601, 1993) in a modified Tris-HCl buffer (50 mM Tris-HCl, pH 7.4, 2 mM MgCl2, 100 mM NaCl, 250 mM Sucrose) was used. […] Non-specific binding was estimated in the presence of 1 μM Pyrilamine. Receptor proteins were filtered and washed, the filters were then counted to determine [^3H]Pyrilamine specifically bound. […] Biochemical assay results are presented as the percent inhibition of specific binding in Table 2.

[6] = molecular target: T6, human recombinant serotonin (5-Hydroxytryptamine) 5-HT6 receptor (Homo sapiens, UniProt P50406); assay: Serotonin 5-HT6 radioligand binding ([3H]LSD); conditions: compound at 0.1 μM; read-out: Inhibition of ligand binding, Serotonin 5-HT6 (percent inhibition of specific binding)
T6 construct: expressed in transfected cells; host or cells: HeLa
T6 sequence (P50406 whole entry): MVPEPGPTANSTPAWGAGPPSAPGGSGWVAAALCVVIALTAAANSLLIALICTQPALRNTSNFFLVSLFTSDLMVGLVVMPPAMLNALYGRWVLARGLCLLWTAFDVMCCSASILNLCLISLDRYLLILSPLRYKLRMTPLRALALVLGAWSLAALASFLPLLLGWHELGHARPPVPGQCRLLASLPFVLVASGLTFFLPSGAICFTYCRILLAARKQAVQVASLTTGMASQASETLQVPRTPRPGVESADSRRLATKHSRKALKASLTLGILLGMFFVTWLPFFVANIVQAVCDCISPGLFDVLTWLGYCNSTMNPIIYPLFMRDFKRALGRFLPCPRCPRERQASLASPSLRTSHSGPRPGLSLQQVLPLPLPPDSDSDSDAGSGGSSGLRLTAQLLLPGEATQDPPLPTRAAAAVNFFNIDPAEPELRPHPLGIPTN
Excerpt: Receptor proteins were filtered and washed, the filters were then counted to determine [3H]LSD specifically bound.

SMILES	inhibition at 0.1 µM [1] [%]	inhibition at 0.1 µM [2] [%]	inhibition at 1 µM [3] [%]	inhibition at 0.1 µM [4] [%]	inhibition at 1 µM [5] [%]	inhibition at 0.1 µM [6] [%]
Cc1ccc2c(c1)c1c(n2-c2cscc2-c2ccncc2)CCN(C)C1 [Compound 20, 2,8-dimethyl-5-(4-pyridin-4-yl-thiophen-3-yl)-2,3,4,5-tetrahydro-1H-pyrido[4,3-b]indole]	85	97	9	78	42	18
Cc1ccc2c(c1)c1c(n2-c2ccccc2N(C)C)CCN(C)C1 [Compound 6, [2-(2,8-dimethyl-1,2,3,4-tetrahydro-pyrido[4,3-b]indol-5-yl)-phenyl]-dimethyl-amine]	90	49	58	91	99	28
CN1CCc2c(c3cc(Cl)ccc3n2-c2ccsc2)C1 [Compound 29, 8-chloro-2-methyl-5-thiophen-3-yl-2,3,4,5-tetrahydro-1H-pyrido[4,3-b]indole]	98	63	63	101	90	101
Cc1ccc2c(c1)c1c(n2-c2ccc(C(F)(F)F)nc2)CCN(C)C1 [Compound 4, 2,8-dimethyl-5-(6-trifluoromethyl-pyridin-3-yl)-2,3,4,5-tetrahydro-1H-pyrido[4,3-b]indole]	73	1	0	67	-1	14
Cc1ccc2c(c1)c1c(n2-c2ccccc2-c2ccc(S(C)(=O)=O)cc2)CCN(C)C1 [Compound No. 160, 2,8-dimethyl-5-(4′-(methylsulfonyl)biphenyl-2-yl)-2,3,4,5-tetrahydro-1H-pyrido[4,3-b]indole]		17		36		18
Cc1ccc2c(c1)c1c(n2-c2ccccc2-c2cnccc2C)CCN(C)C1 [Compound No. 159, 2,8-dimethyl-5-(2-(4-methylpyridin-3-yl)phenyl)-2,3,4,5-tetrahydro-1H-pyrido[4,3-b]indole]		19		48		0
Cc1ccc2c(c1)c1c(n2-c2ccc3ncccc3c2)CCN(C)C1 [Compound 24, 2,8-dimethyl-5-quinolin-6-yl-2,3,4,5-tetrahydro-1H-pyrido[4,3-b]indole]	66	25	45	72	10	12
Cc1ccc2c(c1)c1c(n2-c2ncccc2-c2ccncc2)CCN(C)C1 [Compound No. 161, 5-(3,4′-bipyridin-2-yl)-2,8-dimethyl-2,3,4,5-tetrahydro-1H-pyrido[4,3-b]indole]		18		17		4
Cc1ccc2c(c1)c1c(n2-c2cscc2-c2ccc(F)cc2)CCN(C)C1 [Compound 23]	90	98	44	83	72	45
Cc1ccc2c(c1)c1c(n2-c2cccc3cnccc23)CCN(C)C1 [Compound 9, 5-isoquinolin-5-yl-2,8-dimethyl-2,3,4,5-tetrahydro-1H-pyrido[4,3-b]indole]	77	59	0	54	65	5
Cc1ccc2c(c1)c1c(n2-c2cscc2-c2ccccc2)CCN(C)C1 [Compound 21, 2,8-dimethyl-5-(4-phenyl-thiophen-3-yl)-2,3,4,5-tetrahydro-1H-pyrido[4,3-b]indole]	96	99	54	90	86	62
Cc1ccc2c(c1)c1c(n2-c2cscn2)CCN(C)C1 [Compound 19, 2,8-dimethyl-5-thiazol-4-yl-2,3,4,5-tetrahydro-1H-pyrido[4,3-b]indole]	71	51	14	64	59	15
Cc1ccc2c(c1)c1c(n2-c2cscc2-c2cccnc2)CCN(C)C1 [Compound 22, 2,8-dimethyl-5-(4-pyridin-3-yl-thiophen-3-yl)-2,3,4,5-tetrahydro-1H-pyrido[4,3-b]indole]	80	91	39	75	85	14
Cc1ccc2c(c1)c1c(n2-c2ccccc2-c2ccc(S(N)(=O)=O)cc2)CCN(C)C1 [Compound No. 163, 2′-(2,8-dimethyl-3,4-dihydro-1H-pyrido[4,3-b]indol-5(2H)-yl)biphenyl-4-sulfonamide]		36		73		13
CN1CCc2c(c3cc(Cl)ccc3n2-c2cscc2-c2ccccc2)C1 [Compound 26]	96	95	47	86	91	61
Cc1ccc2c(c1)c1c(n2-c2cnc(C)c3ccccc23)CCN(C)C1 [Compound No. 164, 2,8-dimethyl-5-(1-methylisoquinolin-4-yl)-2,3,4,5-tetrahydro-1H-pyrido[4,3-b]indole]		4		23		1
Cc1ccc2c(c1)c1c(n2-c2cccc(N(C)C)c2)CCN(C)C1 [Compound 7, [3-(2,8-dimethyl-1,2,3,4-tetrahydro-pyrido[4,3-b]indol-5-yl)-phenyl]-dimethyl-amine]	42	19	31	52	43	4
Cc1ccc2c(c1)c1c(n2-c2ccccc2-c2cccnc2)CCN(C)C1 [Compound 13, 2,8-dimethyl-5-(2-pyridin-3-yl-phenyl)-2,3,4,5-tetrahydro-1H-pyrido[4,3-b]indole]	73	47	21	73	72	14
Cc1ccc2c(c1)c1c(n2-c2ccccc2)CCN(C)C1 [Compound 1, 2,8-dimethyl-5-phenyl-2,3,4,5-tetrahydro-1H-pyrido[4,3-b]indole]	88	21	67	100	70	63
Cc1ccc2c(c1)c1c(n2-c2ccc3ccccc3c2)CCN(C)C1 [Compound 12, 2,8-dimethyl-5-naphthalen-2-yl-2,3,4,5-tetrahydro-1H-pyrido[4,3-b]indole]	93	3	84	94	24	63
